Experimental data from patent publication US20130144068A1, “Methods for the Sterilization of Bendamustine” (Cephalon, Inc., priority 2010, published 2013).

Assays:
[1] = HPLC purity of bendamustine HCl after sterilization; type: physicochemical
Description: (§1) 100 mg each of bendamustine HCl was weighed into a 20 mL tubing vial, a 20 mL amber vial, and a 20 mL clear vial. Rubber stoppers were inserted and aluminum caps crimped on. The vials were passed through a gamma irradiation line and received doses in the range of 29.3 kGy to about 32.3 kGy. Purity and sterility testing was then performed.
as §1, with “an electron beam” for “a gamma”, “a dose” for “doses in the range”, “of” for “of 29.3 kGy to”, “30” for “32.3”
To each 10 mg of bendamustine HCl, sterilized according to the methods described above, was added 10 mL N-methyl-2-pyrrolidone (NMP). A reference standard of bendamustine HCl was prepared in NMP having a concentration of 1 mg/mL. HPLC was performed according to conventional methods.

[2] = heating; background statement; cited from earlier work

## Cl.Cn1c(CCCC(=O)O)nc2cc(N(CCCl)CCCl)ccc21 [bendamustine HCl, Bendamustine hydrochloride]
[1]; after E-beam irradiation, about 30 kGy, 100 mg solid in amber vial
  HPLC purity (% area): 99.70 % area
[1]; after E-beam irradiation, about 30 kGy, 100 mg solid in clear vial
  HPLC purity (% area): 99.70 % area
[1]; after gamma irradiation, 29.3 kGy to about 32.3 kGy, 100 mg solid in amber vial
  HPLC purity (% area): 99.70 % area
[1]; after gamma irradiation, 29.3 kGy to about 32.3 kGy, 100 mg solid in clear vial
  HPLC purity (% area): 99.64 % area
[2]
  Temperature at which the solid chars when heated: 160 °C
